Reference: patent publication US9050345B2, “Pyrrolotriazines as potassium ion channel inhibitors” (BRISTOL-MYERS SQUIBB COMPANY, priority 2013, dated 2015)

What follows are compounds tested against T1, human KV 1.5 (IKur) (Homo sapiens, UniProt P22460) (assay: block of IKur current in patch clamped L-929 cells expressing human Kv1.5). Conditions: 0.3 μM; patch clamped mammalian L-929 cells stably expressing human Kv1.5.
T1 construct: expressed in transfected cells
Format: cell-based
Excerpt: Assays to determine the degree of activity of a compound as an IKur inhibitor are well known in the art and are described in references such as J. Gen. Physiol., 101(4):513-543 (April 1993), and Br. J. Pharmacol., 115(2):267-274 (May 1995).
Synders, D. J. et al., “A rapidly activating and slowly inactivating potassium channel cloned from human heart: functional analysis after stable mammalian cell culture expression”, J. Gen. Physiol., 101:513-543 (1993). • 2. Zhou, Z. et al., “Block of HERG potassium channels by the antihistamine astemizole and its metabolites desmethylastemizole and norastemizole”, J. Cardiovasc. Electrophysiol., 10(6):836-843 (1999).

T1 sequence (P22460 whole entry): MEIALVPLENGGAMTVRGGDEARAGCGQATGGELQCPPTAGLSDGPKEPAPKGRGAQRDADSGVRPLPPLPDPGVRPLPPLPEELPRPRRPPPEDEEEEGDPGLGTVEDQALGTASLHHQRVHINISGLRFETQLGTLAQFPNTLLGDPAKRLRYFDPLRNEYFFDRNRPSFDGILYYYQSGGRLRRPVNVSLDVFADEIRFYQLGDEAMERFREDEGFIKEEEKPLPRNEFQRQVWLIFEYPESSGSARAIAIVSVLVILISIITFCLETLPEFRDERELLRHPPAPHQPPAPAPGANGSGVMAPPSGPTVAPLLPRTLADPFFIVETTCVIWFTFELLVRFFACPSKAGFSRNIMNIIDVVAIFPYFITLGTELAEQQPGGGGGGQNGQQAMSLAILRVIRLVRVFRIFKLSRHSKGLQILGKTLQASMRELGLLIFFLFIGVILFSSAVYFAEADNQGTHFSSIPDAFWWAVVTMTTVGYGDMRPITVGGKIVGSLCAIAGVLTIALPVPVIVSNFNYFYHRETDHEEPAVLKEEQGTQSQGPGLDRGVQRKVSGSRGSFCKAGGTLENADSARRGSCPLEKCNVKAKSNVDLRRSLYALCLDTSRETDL

SMILES	KV1_5% Inh L929 @0.3 μM
NS(=O)(=O)c1cncc(-c2nc(NC(CO)c3ccccn3)c3c(-c4ccccc4)ccn3n2)c1 (stereo not drawn) [Example 33, 5-(4-((2-Hydroxy-1-(pyridin-2-yl)ethyl)amino)-5-phenylpyrrolo[2,1-f][1,2,4]triazin-2-yl)pyridine-3-sulfonamide]	95.01%
NS(=O)(=O)CCc1cncc(-c2nc(NCc3ccccn3)c3c(-c4ccccc4)ccn3n2)c1 [Example 38, 2-(5-(5-Phenyl-4-(pyridin-2-ylmethylamino)pyrrolo[1,2-f][1,2,4]triazin-2-yl)pyridin-3-yl)ethanesulfonamide]	97.45%

Same assay, conditions: L929, 0.3 μM; patch clamped mammalian L-929 cells stably expressing human Kv1.5; read-out: KV1_5% Inh L929 @0.3 μM

SMILES	inhibition at 0.3 µM
OCC(CO)c1cncc(-c2nc(NCc3ccccc3)c3c(-c4ccccc4)ccn3n2)c1 [Example 24, 2-(5-(4-(Benzylamino)-5-phenylpyrrolo[1,2-f][1,2,4]triazin-2-yl)pyridin-3-yl)propane-1,3-diol]	63.5%
NC(=O)Nc1cncc(-c2nc(NCc3ccccn3)c3c(-c4ccccc4)ccn3n2)c1 [Example 25, 1-(5-(5-Phenyl-4-(pyridin-2-ylmethylamino)pyrrolo[1,2-f][1,2,4]triazin-2-yl)pyridin-3-yl)urea]	96.8%
CC(=O)Nc1ccc(-c2nc(NCc3ccccn3)c3c(-c4ccccc4)ccn3n2)cc1 [Example 26, N-(4-(5-Phenyl-4-(pyridin-2-ylmethylamino)pyrrolo[1,2-f][1,2,4]triazin-2-yl)phenyl)acetamide]	94.5%
CS(=O)(=O)Nc1cccc(NC(=O)c2nc(NCc3ccccc3)c3c(-c4ccccc4)ccn3n2)c1 [Example 27, 4-(Benzylamino)-N-(3-(methylsulfonamido)phenyl)-5-phenylpyrrolo[1,2-f][1,2,4]triazine-2-carboxamide]	93.2%
NC(=O)CNS(=O)(=O)c1cncc(-c2nc(NCc3ccccn3)c3c(-c4ccccc4)ccn3n2)c1 [Example 28, 2-(5-(5-Phenyl-4-(pyridin-2-ylmethylamino)pyrrolo[1,2-f][1,2,4]triazin-2-yl)pyridine-3-sulfonamido)acetamide]	97.5%
NC(=O)CCC(=O)Nc1cncc(-c2nc(NCc3ccccn3)c3c(-c4ccccc4)ccn3n2)c1 [Example 30, N1-(5-(5-Phenyl-4-(pyridin-2-ylmethylamino)pyrrolo[1,2-f][1,2,4]triazin-2-yl)pyridin-3-yl)succinamide]	96.3%
NC(=O)C(=O)Nc1cncc(-c2nc(NCc3ccccn3)c3c(-c4ccccc4)ccn3n2)c1 [Example 31, N1-(5-(5-Phenyl-4-(pyridin-2-ylmethylamino)pyrrolo[1,2-f][1,2,4]triazin-2-yl)pyridin-3-yl)oxalamide]	98.6%
Cc1nc(CNc2nc(-c3cncc(S(N)(=O)=O)c3)nn3ccc(-c4ccccc4)c23)cs1 [Example 32, 5-(4-((2-Methylthiazol-4-yl)methylamino)-5-phenylpyrrolo[1,2-f][1,2,4]triazin-2-yl)pyridine-3-sulfonamide]	99.3%
NS(=O)(=O)c1cncc(-c2nc(NC(CO)c3ccccn3)c3c(-c4ccccc4)ccn3n2)c1 (stereo not drawn) [Example 33, 5-(4-((2-Hydroxy-1-(pyridin-2-yl)ethyl)amino)-5-phenylpyrrolo[2,1-f][1,2,4]triazin-2-yl)pyridine-3-sulfonamide]	87.8%
CC(C)(C)OC(=O)NC1(c2nc(NCc3ccccn3)c3c(-c4ccccc4)ccn3n2)CC1 [Example 34, tert-Butyl 1-(5-phenyl-4-(pyridin-2-ylmethylamino)pyrrolo[1,2-f][1,2,4]triazin-2-yl)cyclopropylcarbamate]	97.3%
COC(=O)NC1(c2nc(NCc3ccccn3)c3c(-c4ccccc4)ccn3n2)CC1 [Example 35, Methyl 1-(5-phenyl-4-(pyridin-2-ylmethylamino)pyrrolo[1,2-f][1,2,4]triazin-2-yl)cyclopropylcarbamate]	92.8%
CC(=O)NC1(c2nc(NCc3ccccn3)c3c(-c4ccccc4)ccn3n2)CC1 [Example 36, N-(1-(5-Phenyl-4-(pyridin-2-ylmethylamino)pyrrolo[1,2-f][1,2,4]triazin-2-yl)cyclopropyl)acetamide]	46%
CS(=O)(=O)NC1(c2nc(NCc3ccccn3)c3c(-c4ccccc4)ccn3n2)CC1 [Example 37, N-(1-(5-Phenyl-4-(pyridin-2-ylmethylamino)pyrrolo[1,2-f][1,2,4]triazin-2-yl)cyclopropyl)methanesulfonamide]	98.6%
